Reference: patent publication US10533010B2, “Substituted indole Mcl-1 inhibitors” (Vanderbilt University, priority 2014, dated 2020)
Like-named read-outs stand apart in the source and are kept apart here.

Legend:
Assay type in all cases: binding
[1] = target: Bcl-2 (residues 1-207 A96T,G110R, Δ35-91, replaced with Bcl-xL35-50) (Homo sapiens, UniProt P10415, A37E/DEL42-87/G36T/INS34DVEEN/P40E/P88T/P90S/P91E/V35R/V89E); assay: Fluorescence polarization anisotropy competition selectivity assay (FITC-Bak peptide) with Bcl-2; settings: Table 3; 40 nM Bcl-2, 10 nM FITC-Bak
Experimental: (§1) Compound affinity was measured using a fluorescence polarization anisotropy competition assay. Anisotropy measurements were carried out in 384-well, black, flat-bottom plates (Greiner Bio-one, Monroe, N.C., USA). The assay was run using either a fluorescein isothiocyanate-labeled BH3 peptide derived from Bak (FITC-AHx-[…]-NH2) or a fluorescein isothiocyanate-labeled BH3 peptide derived from Bim (FITC-AHx-[…]-NH2) that were purchased from GenScript (Piscataway, N.J.) at >95% purity and used without further purification. 10 nM FITC-Bak peptide and 15 nM recombinant Mcl-1 (residues 172-327) were added to assay buffer (3 mM dithiothreitol, 50 mM NaCl, 20 mM Tris, pH 7.5). The Bim based assay was run with 1 nM FITC-Bim peptide and 1.5 nM recombinant Mcl-1 (residues 172-327) added to assay buffer (20 mM TRIS pH 7.5, 50 mM NaCl, 3 mM DTT, 0.01% CHAPS). For selectivity assays, 40 nM Bcl-2 (residues 1-207^A96T,G110R, Δ35-91, replaced with Bcl-xL35-50) or 4 nM Bcl-xL (residues 1-209, loop 45-86 deleted) were incubated with 10 nM FITC-Bak in assay buffer.
(§2) Compounds are diluted in DMSO in a 10-point, 3-fold serial dilution scheme. For the FITC-BAK assay 2.5 uL compound is added to 47.5 μL of assay buffer containing FITC-Bak and protein, for a final DMSO concentration of 5% and a top concentration of 20 μM. […] […]. The plate was mixed and incubated for 90 minutes at room temperature. Anisotropy is measured at excitation wavelength 480 nm and emission wavelength 535 nm using an EnVision Multi-label plate reader (PerkinElmer, Wellesley, Mass., USA) or a BioTek Cytation 3 (BioTek, Winooski, Vt., USA). […] IC50 is converted to a binding dissociation constant (Ki value) according to the formula of Wang Z. FEBS Lett (1996) 3, 245.

[2] = target: Bcl-xL (residues 1-209, loop 45-86 deleted) (Homo sapiens (Human), UniProt Q07817, DEL45-86); assay: Fluorescence polarization anisotropy competition selectivity assay (FITC-Bak peptide) with Bcl-xL; settings: Table 3; 4 nM Bcl-xL, 10 nM FITC-Bak
Experimental: as §1, §2

[3] = target: recombinant Mcl-1 (residues 172-327) (Homo sapiens (Human), UniProt Q07820); assay: Fluorescence polarization anisotropy competition assay (FITC-Bak or FITC-Bim BH3 peptide) with Mcl-1
[4] = Table 2, Ki bins given in nM, FITC-Bak or FITC-Bim peptide competition, Ki converted from IC50, read-out: Ki for Inhibition of Mcl-1
[5] = Table 3, selectivity panel, read-out: Mcl-1 Ki

Sequence of recombinant Mcl-1 (residues 172-327) (Q07820 172-327): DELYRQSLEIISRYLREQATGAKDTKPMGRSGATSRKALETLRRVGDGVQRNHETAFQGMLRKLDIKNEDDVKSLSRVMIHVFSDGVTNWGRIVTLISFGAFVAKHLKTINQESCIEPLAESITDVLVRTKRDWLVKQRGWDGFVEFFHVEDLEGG
Sequence of Bcl-xL (residues 1-209, loop 45-86 deleted) (Q07817 other isoform, or with tags, fused parts or gaps del 45-86): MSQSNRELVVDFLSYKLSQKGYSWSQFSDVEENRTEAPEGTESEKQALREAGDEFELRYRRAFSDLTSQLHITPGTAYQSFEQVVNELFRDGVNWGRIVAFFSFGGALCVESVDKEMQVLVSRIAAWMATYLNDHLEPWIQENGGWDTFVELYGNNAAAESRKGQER

Ki [3, 4] [nM] | SMILES | Ki [1] [µM] | Ki [2] [µM] | Ki [3, 5] [nM]
 | Cc1cc(OCCCc2c(C(=O)Nc3cc(C(=O)O)ccn3)[nH]c3c(-c4c(C)nn(C)c4C)c(Cl)ccc23)cc(C)c1Cl [I-183, 2-(6-chloro-3-(3-(4-chloro-3,5-dimethylphenoxy)propyl)-7-(1,3,5-trimethyl-1H-pyrazol-4-yl)-1H-indole-2-carboxamido)isonicotinic acid] | 2.9 | 14.4 | 
 | Cc1cc(OCCCc2c3n(c4c(-c5c(C)nn(C)c5C)c(Cl)ccc24)CCCN(Cc2cccc(C(=O)O)c2)C3=O)cc(C)c1Cl [I-80, 3-((8-chloro-11-(3-(4-chloro-3,5-dimethylphenoxy)propyl)-1-oxo-7-(1,3,5-trimethyl-1H-pyrazol-4-yl)-4,5-dihydro-1H-[1,4]diazepino[1,2-a]indol-2(3H)-yl)methyl)benzoic acid] | 2.34 | 6.75 | 
 | Cc1cc(OCCCc2c(C(=O)Nc3cccc(C(=O)O)c3)[nH]c3c(-c4c(C)nn(C)c4C)c(Cl)ccc23)cc(C)c1Cl [I-39, 3-(6-chloro-3-(3-(4-chloro-3,5-dimethylphenoxy)propyl)-7-(1,3,5-trimethyl-1H-pyrazol-4-yl)-1H-indole-2-carboxamido)benzoic acid] | 1.54 | 4.59 | 
 | Cc1cc(OCCCc2c(C(=O)NCc3cc(C(=O)O)ccn3)[nH]c3c(-c4c(C)nn(C)c4C)cccc23)cc(C)c1Cl [I-280, 2-((3-(3-(4-chloro-3,5-dimethylphenoxy)propyl)-7-(1,3,5-trimethyl-1H-pyrazol-4-yl)-1H-indole-2-carboxamido)methyl)isonicotinic acid] | 7.9 | 27 | 
 | Cc1cc(OCCCc2c(C(=O)Nc3cccc(C(=O)O)c3)n(C)c3c(-c4c(C)nn(C)c4C)c(Cl)ccc23)cc(C)c1Cl [I-188, 3-(6-chloro-3-(3-(4-chloro-3,5-dimethylphenoxy)propyl)-1-methyl-7-(1,3,5-trimethyl-1H-pyrazol-4-yl)-1H-indole-2-carboxamido)benzoic acid] | 5.3 | 15.6 | 
 | Cc1cc(OCCCc2c(C(=O)NCc3c[nH]c(C(=O)O)c3)[nH]c3c(-c4c(C)nn(C)c4C)cccc23)cc(C)c1Cl [I-71, 4-((3-(3-(4-chloro-3,5-dimethylphenoxy)propyl)-7-(1,3,5-trimethyl-1H-pyrazol-4-yl)-1H-indole-2-carboxamido)methyl)-1H-pyrrole-2-carboxylic acid] | 5.95 | 13.8 | 
 | Cc1cc(OCCCc2c3n(c4c(-c5c(C)nn(C)c5C)c(Cl)ccc24)CCCN(c2cccc(C(=O)O)c2)C3=O)cc(C)c1Cl [I-177, 3-(8-chloro-11-(3-(4-chloro-3,5-dimethylphenoxy)propyl)-1-oxo-7-(1,3,5-trimethyl-1H-pyrazol-4-yl)-4,5-dihydro-1H-[1,4]diazepino[1,2-a]indol-2(3H)-yl)benzoic acid] | 1.9 |  | 
 | Cc1cc(OCCCc2c(C(=O)Nc3cncc(C(=O)O)c3)[nH]c3c(-c4c(C)nn(C)c4C)c(Cl)ccc23)cc(C)c1Cl [I-181, 5-(6-chloro-3-(3-(4-chloro-3,5-dimethylphenoxy)propyl)-7-(1,3,5-trimethyl-1H-pyrazol-4-yl)-1H-indole-2-carboxamido)nicotinic acid] | 3.2 | 61.5 | 
 | Cc1cc(OCCCc2c3n(c4c(-c5c(C)nn(C)c5C)cccc24)CCCN(Cc2cccc(C(=O)O)c2)C3=O)cc(C)c1Cl [I-32, 3-((11-(3-(4-chloro-3,5-dimethylphenoxy)propyl)-1-oxo-7-(1,3,5-trimethyl-1H-pyrazol-4-yl)-4,5-dihydro-1H-[1,4]diazepino[1,2-a]indol-2(3H)-yl)methyl)benzoic acid] | 3.82 | 13.4 | 
< 50 | Cc1cc(OCCCc2c3n(c4c(-c5c(C)nn(C)c5C)c(Cl)ccc24)CCCN(Cc2ccc(C(=O)NS(=O)(=O)c4ccc(OCc5cccnc5)cc4)cc2)C3=O)cc(C)c1Cl [I-310, 4-((8-chloro-11-(3-(4-chloro-3,5-dimethylphenoxy)propyl)-1-oxo-7-(1,3,5-trimethyl-1H-pyrazol-4-yl)-4,5-dihydro-1H-[1,4]diazepino[1,2-a]indol-2(3H)-yl)methyl)-N-((4-(pyridin-3-ylmethoxy)phenyl)sulfonyl)benzamide] |  |  | 
< 50 | Cc1cc(OCCCc2c(C(=O)NCc3ccc(C(=O)O)o3)[nH]c3c(-c4c(C)n[nH]c4C)cccc23)cc(C)c1Cl [I-62, 5-((3-(3-(4-chloro-3,5-dimethylphenoxy)propyl)-7-(3,5-dimethyl-1H-pyrazol-4-yl)-1H-indole-2-carboxamido)methyl)furan-2-carboxylic acid] |  |  | 
< 50 | Cc1cc(OCCCc2c3n(c4c(-c5c(C)nn(C)c5C)c(Cl)ccc24)CCCN(c2ccc(C(=O)NS(=O)(=O)C4CC4)cc2)C3=O)cc(C)c1Cl [I-361, 4-(8-chloro-11-(3-(4-chloro-3,5-dimethylphenoxy)propyl)-1-oxo-7-(1,3,5-trimethyl-1H-pyrazol-4-yl)-4,5-dihydro-H-[1,4]diazepino[1,2-a]indol-2(3H)-yl)-N-(cyclopropylsulfonyl)benzamide] |  |  | 
< 50 | Cc1cc(OCCCc2c3n(c4c(-c5c(C)nn(C)c5C)c(Cl)ccc24)[C@@H](C)CN(c2cccc(C(=O)O)c2)C3=O)cc(C)c1Cl [I-165, (S)-3-(7-chloro-10-(3-(4-chloro-3,5-dimethylphenoxy)propyl)-4-methyl-1-oxo-6-(1,3,5-trimethyl-1H-pyrazol-4-yl)-3,4-dihydropyrazino[1,2-a]indol-2(1H)-yl)benzoic acid] |  |  | 
51 to 100 | Cc1cc(OCCCc2c(C(=O)Nc3ccc(C#N)cc3)[nH]c3c(-c4c(C)nn(C)c4C)c(Cl)ccc23)cc(C)c1Cl [I-355, 6-chloro-3-(3-(4-chloro-3,5-dimethylphenoxy)propyl)-N-(4-cyanophenyl)-7-(1,3,5-trimethyl-1H-pyrazol-4-yl)-1H-indole-2-carboxamide] |  |  | 

SMILES | Ki [3, 4] [nM] | Ki [1] [µM] | Ki [2] [µM] | Ki [3, 5] [nM]
Cc1cc(OCCCc2c(C(=O)NCc3cc(C(=O)O)n(C)c3)[nH]c3c(-c4c(C)nn(C)c4C)cccc23)cc(C)c1Cl [I-74, 4-((3-(3-(4-chloro-3,5-dimethylphenoxy)propyl)-7-(1,3,5-trimethyl-1H-pyrazol-4-yl)-1H-indole-2-carboxamido)methyl)-1-methyl-1H-pyrrole-2-carboxylic acid] | […] | 3.54 | > 100 | […]
Cc1cc(OCCCc2c(C(=O)N(C)c3cccc(C(=O)O)c3)n(C)c3c(-c4c(C)nn(C)c4C)c(Cl)ccc23)cc(C)c1Cl [I-189, 3-(6-chloro-3-(3-(4-chloro-3,5-dimethylphenoxy)propyl)-N,1-dimethyl-7-(1,3,5-trimethyl-1H-pyrazol-4-yl)-1H-indole-2-carboxamido)benzoic acid] | < 50 | 1.37 | 4.63 | < 7
Cc1cc(OCCCc2c(C(=O)Nc3ccc(C(=O)O)cc3)[nH]c3c(-c4c(C)nn(CCN5CCOCC5)c4C)c(Cl)ccc23)cc(C)c1Cl [I-190, 4-(6-chloro-3-(3-(4-chloro-3,5-dimethylphenoxy)propyl)-7-(3,5-dimethyl-1-(2-morpholinoethyl)-1H-pyrazol-4-yl)-1H-indole-2-carboxamido)benzoic acid] | […] | 1.64 | 45.6 | […]
